Data taken from article doi:10.1101/2020.01.20.912972v1 (biorxiv, 2020).

Columns and labels:
[1] = target: TrpR (tryptophan repressor; TrpR-Wt) (Escherichia coli, UniProt P0A881, S88Y); test: isothermal titration calorimetry; format: binding
[2] = target: TrpR (tryptophan repressor; TrpR-Wt) (Escherichia coli, UniProt P0A881); test: isothermal titration calorimetry; format: binding

O=C(O)CCc1c[nH]c2ccccc12 [IPA, Indole-3-propionic acid]
Kd [1]: 7.49 ± 0.91 µM
Kd [2]: 33.4 ± 1.16 µM

O=C(O)CCCc1c[nH]c2ccccc12 [IBA, Indole-3-butyric acid]
Kd [1]: 10.4 ± 1.25 µM
Kd [2]: 32.7 ± 0.88 µM

N[C@@H](Cc1c[nH]c2ccccc12)C(=O)O [TRP, Tryptophan]
Kd [2]: 40.3 ± 2.35 µM

Cc1ccc2[nH]cc(CC(N)C(=O)O)c2c1 (racemic) [5-Met-TRP, 5-Methyl-DL-Tryptophan]
Kd [2]: 62.2 ± 15.6 µM

O=C(O)Cc1c[nH]c2ccccc12 [IAA, Indole-3-acetic acid]
Kd [1]: 29.3 ± 2.08 µM
Kd [2]: 162 ± 14 µM
